Compound: O=C(O)c1ccc2c(c1)nc(Nc1cccc(Cl)c1)c1ccncc12 [Silmitasertib]
Assay: relative viability (nuclei count vs DMSO), 5 days (fraction); higher = more cells survive
Procedure, shortened: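 Only plates meeting two conditions passed: control CV below 25% and at least one doubling. Lung cancer cell lines, kept overnight at 37 °C in 1536-well plates, were pinned with five library-drug doses (not always all listed) √10 apart on vehicle-anchored plates and grown 5 days without medium change. A one-step fix, permeabilisation and Hoechst stain preceded 4× imaging and MetaXpress nuclear counting. Viability equals treated-well nuclei divided by vehicle-well nuclei, as the median over plates.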

Cell Line: 201T
- relative viability (0.04 µM): 1.08
- relative viability (0.4 µM): 0.994
- relative viability (1.265 µM): 1.02
- relative viability (4 µM): 1.06

Cell Line: A549
- relative viability (0.04 µM): 1.03
- relative viability (0.4 µM): 0.994
- relative viability (1.265 µM): 1
- relative viability (4 µM): 0.882

Cell Line: A-427
- relative viability (0.04 µM): 1.07
- relative viability (1.265 µM): 1.03
- relative viability (4 µM): 0.396

Cell Line: ABC-1
- relative viability (0.04 µM): 1.37
- relative viability (0.4 µM): 0.773
- relative viability (1.265 µM): 0.656
- relative viability (4 µM): 0.465

Cell Line: BEN
- relative viability (0.04 µM): 1.16
- relative viability (0.4 µM): 0.795
- relative viability (1.265 µM): 1
- relative viability (4 µM): 0.885

Cell Line: CAL-12T
- relative viability (0.04 µM): 1.15
- relative viability (0.4 µM): 0.892
- relative viability (1.265 µM): 0.842
- relative viability (4 µM): 0.472

Cell Line: COR-L23
- relative viability (0.04 µM): 1.07
- relative viability (0.4 µM): 0.782
- relative viability (1.265 µM): 1.09
- relative viability (4 µM): 0.831

Cell Line: COR-L 105
- relative viability (0.04 µM): 1.05
- relative viability (0.4 µM): 0.902
- relative viability (1.265 µM): 0.768
- relative viability (4 µM): 0.553

Cell Line: ChaGo-K-1
- relative viability (0.04 µM): 1.07
- relative viability (0.4 µM): 0.735
- relative viability (1.265 µM): 0.96
- relative viability (4 µM): 0.885

Cell Line: EKVX
- relative viability (0.04 µM): 1.11
- relative viability (0.4 µM): 0.617
- relative viability (1.265 µM): 0.864
- relative viability (4 µM): 0.717

Cell Line: EMC-BAC-2
- relative viability (0.04 µM): 1.11
- relative viability (0.4 µM): 0.806
- relative viability (1.265 µM): 0.605
- relative viability (4 µM): 0.44

Cell Line: EPLC-272H
- relative viability (0.04 µM): 1.25
- relative viability (1.265 µM): 0.807
- relative viability (4 µM): 0.154

Cell Line: H3255
- relative viability (0.04 µM): 1.05
- relative viability (0.4 µM): 0.877
- relative viability (1.265 µM): 0.946
- relative viability (4 µM): 0.906

Cell Line: HARA
- relative viability (0.04 µM): 1.13
- relative viability (0.4 µM): 0.678
- relative viability (1.265 µM): 0.668
- relative viability (4 µM): 0.38

Cell Line: HCC-15
- relative viability (0.04 µM): 1.11
- relative viability (0.4 µM): 0.769
- relative viability (1.265 µM): 0.825
- relative viability (4 µM): 0.377

Cell Line: HCC-44
- relative viability (0.04 µM): 1.03
- relative viability (0.4 µM): 0.963
- relative viability (1.265 µM): 1.03
- relative viability (4 µM): 0.544

Cell Line: HCC-78
- relative viability (0.04 µM): 1.05
- relative viability (0.4 µM): 0.697
- relative viability (1.265 µM): 0.654
- relative viability (4 µM): 0.764

Cell Line: HCC-366
- relative viability (0.04 µM): 0.993
- relative viability (0.4 µM): 0.794
- relative viability (1.265 µM): 0.923
- relative viability (4 µM): 0.136

Cell Line: HCC-827
- relative viability (0.04 µM): 1.09
- relative viability (1.265 µM): 1.14
- relative viability (4 µM): 0.996

Cell Line: HOP-62
- relative viability (0.04 µM): 1.09
- relative viability (1.265 µM): 1.12
- relative viability (4 µM): 0.542

Cell Line: LC-2-ad
- relative viability (0.04 µM): 1.13
- relative viability (0.4 µM): 0.828
- relative viability (1.265 µM): 0.976
- relative viability (4 µM): 0.523

Cell Line: LCLC-97TM1
- relative viability (0.04 µM): 1.1
- relative viability (1.265 µM): 0.882
- relative viability (4 µM): 0.403

Cell Line: LCLC-103H
- relative viability (0.04 µM): 0.986
- relative viability (0.4 µM): 0.99
- relative viability (1.265 µM): 0.945
- relative viability (4 µM): 0.628

Cell Line: LK-2
- relative viability (0.04 µM): 1.04
- relative viability (0.4 µM): 0.727
- relative viability (1.265 µM): 1.03
- relative viability (4 µM): 0.943

Cell Line: LOU-NH91
- relative viability (0.04 µM): 1.12
- relative viability (0.4 µM): 0.917
- relative viability (1.265 µM): 0.806
- relative viability (4 µM): 0.582

Cell Line: LU99A
- relative viability (0.04 µM): 1.03
- relative viability (0.4 µM): 1.09
- relative viability (1.265 µM): 0.986
- relative viability (4 µM): 0.752

Cell Line: LXF-289
- relative viability (0.04 µM): 1.05
- relative viability (1.265 µM): 1.05
- relative viability (4 µM): 1.02

Cell Line: NCI-H23
- relative viability (0.04 µM): 1.07
- relative viability (0.4 µM): 0.395
- relative viability (1.265 µM): 0.747
- relative viability (4 µM): 0.372

Cell Line: NCI-H322M
- relative viability (0.04 µM): 1.08
- relative viability (0.4 µM): 0.882
- relative viability (1.265 µM): 0.826
- relative viability (4 µM): 0.486

Cell Line: NCI-H358
- relative viability (0.04 µM): 1.13
- relative viability (0.4 µM): 0.757
- relative viability (1.265 µM): 0.744
- relative viability (4 µM): 0.667

Cell Line: NCI-H441
- relative viability (0.04 µM): 1
- relative viability (1.265 µM): 0.892
- relative viability (4 µM): 0.757

Cell Line: NCI-H460
- relative viability (0.04 µM): 1.03
- relative viability (0.4 µM): 0.951
- relative viability (1.265 µM): 0.959
- relative viability (4 µM): 0.799

Cell Line: NCI-H520
- relative viability (0.04 µM): 1.11
- relative viability (0.4 µM): 0.835
- relative viability (1.265 µM): 0.887
- relative viability (4 µM): 0.802

Cell Line: NCI-H522
- relative viability (0.04 µM): 1.09
- relative viability (0.4 µM): 0.788
- relative viability (1.265 µM): 0.82
- relative viability (4 µM): 0.694

Cell Line: NCI-H596
- relative viability (0.04 µM): 0.958
- relative viability (0.4 µM): 0.792
- relative viability (1.265 µM): 0.947
- relative viability (4 µM): 0.658

Cell Line: NCI-H647
- relative viability (0.04 µM): 0.968
- relative viability (0.4 µM): 0.758
- relative viability (1.265 µM): 0.723
- relative viability (4 µM): 0.498

Cell Line: NCI-H650
- relative viability (0.04 µM): 1.17
- relative viability (0.4 µM): 0.567
- relative viability (1.265 µM): 0.66
- relative viability (4 µM): 0.379

From the supplement of paper PMC10307832
